Source: US20040076968A1, “Method for detecting pre-disposition to hepatotoxicity” (priority 2000, published 2004)

System: UGT1A7 gene
Assay: Association of UGT1A7 polymorphisms with liver function abnormality in tolcapone-treated patients (case-control genotyping)
Type: in vivo, human
Source text: Disease severity had already been controlled for by the original study inclusion criteria.
For all other single nucleotide polymorphisms (SNPs) discovery and genotyping was done by double-stranded DNA sequencing using an ABI capillary sequencer and Big Dye chemistry (ABI). The primers used to amplify all exons are shown below and were also used as sequencing primers. Publicly available genomic sequences were used as references for primer design. All polymorphisms were targeted with these pairs-of-primer sets:
Fourty nanograms of genomic DNA were PCR-amplified in 50 μl reactions using an automated PCR machine. Reaction conditions varied as follows. For the amplification of the UGT1A6-fragment conditions were as follows: 10 mM Tris pH 8.3, 50 mM KCl, 1.5 mM MgCl2, 0.2 mM of each dNTP, 0.4 μM of each primer and 1.5U Boehringer Taq Polymerase. The thermocycling protocol consisted of an initial incubation of 95° C. for 15 min. followed by 35 cycles of 94° C. for 1 min., 57° C. for 30 sec., 72° C. for 1 min., and one final extension step of 72° C. for 10 min. The UGT1A7-1 fragment was amplified using Qiagen PCR buffer with 1.5 mM MgCl2, 0.2 mM of each dNTP, 0.4 μM of each primer and 1.5U Boehringer Taq Polymerase. The thermocycling protocol was the same as for UGT1A6-fragment with one exception: the annealing temperature was 61° C. For UGT1A7-2 fragment PCR conditions were as follows: 150 mM Tris pH 8.5, 15 mM (NH4)2SO4, 3.5 mM MgCl2, 0.2 mM of each dNTP, 0.4 μM of each primer and 1.5U Qiagen Hot Start Taq Polymerase. Thermocycling was done using a touch-down PCR protocol. After an iniatial amplification of 95° C. for 10 min. followed 5 cycles of 95° C. for 1 min., 62° C. for 30 sec. (minus 0.5° C. per cycle), 72° C. for 1 min and thirty cycles of 95° C. for 1 min., 60° C. for 30 sec., 72° C. for 1 min. and a final extension step of 72° C. for 10 min. After PCR amplification fragments were purified using the Qiaquick PCR purification kit on a Biorobot 9600. Cycle sequencing was performed on an automated PCR machine using ABI Big Dye terminator chemistry according to the manufacturer's intruction with the following changes: 2.5-5 ng/100 bp of PCR product were mixed with 2 μl Big Dye terminatior mix, oligonucleotide primer concentration was 10 pmol, if necessary 5% DMSO was added to the reaction; the final reaction volume was 10 μl. Sequencing reactions were subjected to 28 cycles at 93° C. for 30 sec, 48° C. for 30 sec, and 58° C. for 120 sec., followed by an ethanol/NaOAc precipitation. After decanting the ethanol, samples were evaporated to dryness using a SpeedVac for 2 min. and were resuspended in 45 μl ultrapure water (MERCK, HPLC grade). […] were loaded on an ABI 3700 capillary sequencer using POP5 as a polymer. After sequencing, the polymorphism analyses were done using Polyphred software (licenced from University of Washington).
The patient samples were divided into two groups.
For each genotype, the following analyses were performed:
a) Analysis of the entire genotype: patients were classified according to the following three categories: homozygous 1/1 (two copies of allele 1 and no copies of allele 2), heterozygous 1/2 (one copy of allele 1 and one copy of allele 2) or homozygous 2/2 (no copies of allele 1 and two copies of allele 2). Analysis was conducted to assess whether there were differences in the proportion of case patients in each of these groups, compared with the proportion of control patients. The Cochran-Maentel-Hanszel (CMH) test was applied to the data presented in a 2-by-3 table (the two columns indicating presence or absence of liver function abnormality and the three rows indicating the three categories of the genotype).

**Q.** For `Cc1ccc(C(=O)c2cc(O)c(O)c([N+](=O)[O-])c2)cc1` [tolcapone], which “n (%) of patients” value (UGT1A7_197 C/G, Allele A Absent, Liver Function Abnormality Absent) is on record?
**A.** 125 (46.5%)

**Q.** What about the “n (%) of patients” value (UGT1A7_197 C/G, Allele A Absent, Liver Function Abnormality Present) of the same compound?
**A.** 46 (34.6%)

**Q.** And the “n (%) of patients” value (UGT1A7_197 C/G, Allele A Present, Liver Function Abnormality Absent)?
**A.** 144 (53.5%)

**Q.** And the “n (%) of patients” value (UGT1A7_197 C/G, Allele A Present, Liver Function Abnormality Present)?
**A.** 87 (65.4%)

**Q.** What about the “n (%) of patients” value (UGT1A7_197 C/G, Allele C Absent, Liver Function Abnormality Absent) of the same compound?
**A.** 32 (11.9%)

**Q.** And the “n (%) of patients” value (UGT1A7_197 C/G, Allele C Absent, Liver Function Abnormality Present)?
**A.** 25 (18.8%)

**Q.** What about the “n (%) of patients” value (UGT1A7_197 C/G, Allele C Present, Liver Function Abnormality Absent) of the same compound?
**A.** 237 (88.1%)

**Q.** And the “n (%) of patients” value (UGT1A7_197 C/G, Allele C Present, Liver Function Abnormality Present)?
**A.** 108 (81.2%)

**Q.** And the “n (%) of patients” value (UGT1A7_197 C/G, Genotype Heterozygous A/C, Liver Function Abnormality Absent)?
**A.** 112 (41.6%)

**Q.** What about the “n (%) of patients” value (UGT1A7_197 C/G, Genotype Heterozygous A/C, Liver Function Abnormality Present) of the same compound?
**A.** 62 (46.6%)

**Q.** And the “n (%) of patients” value (UGT1A7_197 C/G, Genotype Homozygous A/A, Liver Function Abnormality Absent)?
**A.** 32 (11.9%)

**Q.** What about the “n (%) of patients” value (UGT1A7_197 C/G, Genotype Homozygous A/A, Liver Function Abnormality Present) of the same compound?
**A.** 25 (18.8%)

**Q.** And the “n (%) of patients” value (UGT1A7_197 C/G, Genotype Homozygous C/C, Liver Function Abnormality Absent)?
**A.** 125 (46.5%)

**Q.** And the “n (%) of patients” value (UGT1A7_197 C/G, Genotype Homozygous C/C, Liver Function Abnormality Present)?
**A.** 46 (34.6%)

**Q.** And the “n (%) of patients” value (UGT1A7_551 Asn129Lys, Allele G Absent, Liver Function Abnormality Absent)?
**A.** 49 (18.2%)

**Q.** What about the “n (%) of patients” value (UGT1A7_551 Asn129Lys, Allele G Absent, Liver Function Abnormality Present) of the same compound?
**A.** 14 (10.6%)

**Q.** What about the “n (%) of patients” value (UGT1A7_551 Asn129Lys, Allele G Present, Liver Function Abnormality Absent) of the same compound?
**A.** 220 (81.8%)

**Q.** What about the “n (%) of patients” value (UGT1A7_551 Asn129Lys, Allele G Present, Liver Function Abnormality Present) of the same compound?
**A.** 118 (89.4%)

**Q.** What about the “n (%) of patients” value (UGT1A7_551 Asn129Lys, Allele T Absent, Liver Function Abnormality Absent) of the same compound?
**A.** 96 (35.7%)

**Q.** And the “n (%) of patients” value (UGT1A7_551 Asn129Lys, Allele T Absent, Liver Function Abnormality Present)?
**A.** 59 (44.7%)

**Q.** What about the “n (%) of patients” value (UGT1A7_551 Asn129Lys, Allele T Present, Liver Function Abnormality Absent) of the same compound?
**A.** 173 (64.3%)

**Q.** What about the “n (%) of patients” value (UGT1A7_551 Asn129Lys, Genotype Heterozygous G/T, Liver Function Abnormality Absent) of the same compound?
**A.** 124 (46.1%)

**Q.** And the “n (%) of patients” value (UGT1A7_551 Asn129Lys, Genotype Heterozygous G/T, Liver Function Abnormality Present)?
**A.** 59 (44.7%)

**Q.** What about the “n (%) of patients” value (UGT1A7_551 Asn129Lys, Genotype Homozygous G/G, Liver Function Abnormality Absent) of the same compound?
**A.** 96 (35.7%)

**Q.** What about the “n (%) of patients” value (UGT1A7_551 Asn129Lys, Genotype Homozygous G/G, Liver Function Abnormality Present) of the same compound?
**A.** 59 (44.7%)

**Q.** What about the “n (%) of patients” value (UGT1A7_551 Asn129Lys, Genotype Homozygous T/T, Liver Function Abnormality Absent) of the same compound?
**A.** 49 (18.2%)

**Q.** And the “n (%) of patients” value (UGT1A7_551 Asn129Lys, Genotype Homozygous T/T, Liver Function Abnormality Present)?
**A.** 14 (10.6%)

**Q.** What about the “n (%) of patients” value (UGT1A7_555 silent or Arg131Lys, Allele A Absent, Liver Function Abnormality Absent) of the same compound?
**A.** 49 (18.2%)

**Q.** What about the “n (%) of patients” value (UGT1A7_555 silent or Arg131Lys, Allele A Absent, Liver Function Abnormality Present) of the same compound?
**A.** 14 (10.6%)

**Q.** What about the “n (%) of patients” value (UGT1A7_555 silent or Arg131Lys, Allele A Present, Liver Function Abnormality Absent) of the same compound?
**A.** 220 (81.8%)

**Q.** And the “n (%) of patients” value (UGT1A7_555 silent or Arg131Lys, Allele A Present, Liver Function Abnormality Present)?
**A.** 118 (89.4%)

**Q.** What about the “n (%) of patients” value (UGT1A7_555 silent or Arg131Lys, Allele C Absent, Liver Function Abnormality Absent) of the same compound?
**A.** 96 (35.7%)

**Q.** What about the “n (%) of patients” value (UGT1A7_555 silent or Arg131Lys, Allele C Absent, Liver Function Abnormality Present) of the same compound?
**A.** 58 (43.9%)

**Q.** What about the “n (%) of patients” value (UGT1A7_555 silent or Arg131Lys, Allele C Present, Liver Function Abnormality Absent) of the same compound?
**A.** 173 (64.3%)

**Q.** What about the “n (%) of patients” value (UGT1A7_555 silent or Arg131Lys, Allele C Present, Liver Function Abnormality Present) of the same compound?
**A.** 74 (56.1%)
